The text below walks through data of US20160289186A1, “FLUOROMETHYL-SUBSTITUTED PYRROLE CA[…]” (Grunenthal GmbH, priority 2013, published 2016).

T1 sequence (Q00975 whole entry): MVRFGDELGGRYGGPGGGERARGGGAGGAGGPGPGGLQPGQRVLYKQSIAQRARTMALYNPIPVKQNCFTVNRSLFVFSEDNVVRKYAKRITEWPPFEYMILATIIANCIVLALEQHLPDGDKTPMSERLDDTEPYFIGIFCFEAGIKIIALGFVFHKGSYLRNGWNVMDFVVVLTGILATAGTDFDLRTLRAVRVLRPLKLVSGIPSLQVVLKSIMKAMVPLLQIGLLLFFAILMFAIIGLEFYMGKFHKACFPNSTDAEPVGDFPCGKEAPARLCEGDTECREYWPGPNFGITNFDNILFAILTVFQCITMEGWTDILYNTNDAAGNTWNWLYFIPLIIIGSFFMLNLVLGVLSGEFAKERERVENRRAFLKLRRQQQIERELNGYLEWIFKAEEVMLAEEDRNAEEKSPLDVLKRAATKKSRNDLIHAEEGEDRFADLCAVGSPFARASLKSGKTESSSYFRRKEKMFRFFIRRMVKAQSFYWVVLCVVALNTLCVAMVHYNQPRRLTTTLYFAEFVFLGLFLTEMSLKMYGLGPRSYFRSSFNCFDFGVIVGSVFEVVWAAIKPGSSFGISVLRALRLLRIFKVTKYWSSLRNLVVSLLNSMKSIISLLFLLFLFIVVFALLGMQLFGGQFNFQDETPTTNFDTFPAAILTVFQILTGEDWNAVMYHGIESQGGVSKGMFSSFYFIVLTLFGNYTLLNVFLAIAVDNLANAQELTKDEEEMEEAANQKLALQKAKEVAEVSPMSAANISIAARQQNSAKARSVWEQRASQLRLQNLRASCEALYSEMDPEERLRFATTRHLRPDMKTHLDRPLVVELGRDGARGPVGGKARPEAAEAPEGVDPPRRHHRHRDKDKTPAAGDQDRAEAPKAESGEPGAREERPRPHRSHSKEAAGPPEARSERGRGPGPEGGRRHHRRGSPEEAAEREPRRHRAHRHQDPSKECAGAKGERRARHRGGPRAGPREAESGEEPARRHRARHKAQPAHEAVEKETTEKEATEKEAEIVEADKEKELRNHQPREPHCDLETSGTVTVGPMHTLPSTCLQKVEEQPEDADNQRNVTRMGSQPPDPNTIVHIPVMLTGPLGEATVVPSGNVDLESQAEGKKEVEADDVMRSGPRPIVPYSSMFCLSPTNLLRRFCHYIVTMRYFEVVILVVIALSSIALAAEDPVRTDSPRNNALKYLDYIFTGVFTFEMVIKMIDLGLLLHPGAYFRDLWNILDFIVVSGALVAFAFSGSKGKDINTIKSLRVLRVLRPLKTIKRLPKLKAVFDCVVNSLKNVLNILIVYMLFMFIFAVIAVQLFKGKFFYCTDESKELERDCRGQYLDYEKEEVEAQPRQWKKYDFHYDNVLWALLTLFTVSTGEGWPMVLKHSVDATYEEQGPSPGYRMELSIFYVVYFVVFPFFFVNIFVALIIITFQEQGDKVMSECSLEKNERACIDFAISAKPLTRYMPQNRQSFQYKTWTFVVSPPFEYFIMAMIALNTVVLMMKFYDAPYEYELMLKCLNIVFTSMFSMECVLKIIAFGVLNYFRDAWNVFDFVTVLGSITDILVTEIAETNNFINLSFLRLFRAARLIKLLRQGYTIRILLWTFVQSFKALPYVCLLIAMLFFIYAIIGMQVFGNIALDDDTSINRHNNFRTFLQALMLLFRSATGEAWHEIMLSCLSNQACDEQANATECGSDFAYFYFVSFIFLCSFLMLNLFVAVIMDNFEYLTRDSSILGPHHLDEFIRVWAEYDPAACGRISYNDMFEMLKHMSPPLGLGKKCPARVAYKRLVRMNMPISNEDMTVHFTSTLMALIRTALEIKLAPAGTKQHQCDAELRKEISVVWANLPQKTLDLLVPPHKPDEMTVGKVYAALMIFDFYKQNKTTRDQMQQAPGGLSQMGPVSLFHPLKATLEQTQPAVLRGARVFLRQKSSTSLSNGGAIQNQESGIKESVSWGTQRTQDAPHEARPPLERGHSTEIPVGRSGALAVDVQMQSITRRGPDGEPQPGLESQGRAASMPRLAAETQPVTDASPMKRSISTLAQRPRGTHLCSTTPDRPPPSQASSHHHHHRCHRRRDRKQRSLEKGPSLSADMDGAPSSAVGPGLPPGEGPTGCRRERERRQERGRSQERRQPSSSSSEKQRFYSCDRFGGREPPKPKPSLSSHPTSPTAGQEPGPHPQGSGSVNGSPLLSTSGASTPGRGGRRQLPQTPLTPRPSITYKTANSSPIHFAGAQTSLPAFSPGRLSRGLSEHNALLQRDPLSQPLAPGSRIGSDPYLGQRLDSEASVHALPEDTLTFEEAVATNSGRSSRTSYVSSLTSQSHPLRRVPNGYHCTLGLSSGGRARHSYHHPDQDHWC
T1 sequence (P54284 whole entry, further chain): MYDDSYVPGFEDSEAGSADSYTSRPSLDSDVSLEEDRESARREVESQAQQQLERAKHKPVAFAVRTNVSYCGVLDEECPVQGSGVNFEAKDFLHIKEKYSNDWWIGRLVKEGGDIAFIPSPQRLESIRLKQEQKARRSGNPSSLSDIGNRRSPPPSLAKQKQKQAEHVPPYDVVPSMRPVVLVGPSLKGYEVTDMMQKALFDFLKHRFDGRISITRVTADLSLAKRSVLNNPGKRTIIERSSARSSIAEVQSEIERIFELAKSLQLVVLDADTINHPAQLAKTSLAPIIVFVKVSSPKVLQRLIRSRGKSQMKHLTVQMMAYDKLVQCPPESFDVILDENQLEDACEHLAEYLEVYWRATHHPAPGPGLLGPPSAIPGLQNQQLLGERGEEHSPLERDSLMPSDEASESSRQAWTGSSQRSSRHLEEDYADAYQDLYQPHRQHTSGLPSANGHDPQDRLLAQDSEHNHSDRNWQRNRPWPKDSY
T1 sequence (P54289 25-1103, further chain): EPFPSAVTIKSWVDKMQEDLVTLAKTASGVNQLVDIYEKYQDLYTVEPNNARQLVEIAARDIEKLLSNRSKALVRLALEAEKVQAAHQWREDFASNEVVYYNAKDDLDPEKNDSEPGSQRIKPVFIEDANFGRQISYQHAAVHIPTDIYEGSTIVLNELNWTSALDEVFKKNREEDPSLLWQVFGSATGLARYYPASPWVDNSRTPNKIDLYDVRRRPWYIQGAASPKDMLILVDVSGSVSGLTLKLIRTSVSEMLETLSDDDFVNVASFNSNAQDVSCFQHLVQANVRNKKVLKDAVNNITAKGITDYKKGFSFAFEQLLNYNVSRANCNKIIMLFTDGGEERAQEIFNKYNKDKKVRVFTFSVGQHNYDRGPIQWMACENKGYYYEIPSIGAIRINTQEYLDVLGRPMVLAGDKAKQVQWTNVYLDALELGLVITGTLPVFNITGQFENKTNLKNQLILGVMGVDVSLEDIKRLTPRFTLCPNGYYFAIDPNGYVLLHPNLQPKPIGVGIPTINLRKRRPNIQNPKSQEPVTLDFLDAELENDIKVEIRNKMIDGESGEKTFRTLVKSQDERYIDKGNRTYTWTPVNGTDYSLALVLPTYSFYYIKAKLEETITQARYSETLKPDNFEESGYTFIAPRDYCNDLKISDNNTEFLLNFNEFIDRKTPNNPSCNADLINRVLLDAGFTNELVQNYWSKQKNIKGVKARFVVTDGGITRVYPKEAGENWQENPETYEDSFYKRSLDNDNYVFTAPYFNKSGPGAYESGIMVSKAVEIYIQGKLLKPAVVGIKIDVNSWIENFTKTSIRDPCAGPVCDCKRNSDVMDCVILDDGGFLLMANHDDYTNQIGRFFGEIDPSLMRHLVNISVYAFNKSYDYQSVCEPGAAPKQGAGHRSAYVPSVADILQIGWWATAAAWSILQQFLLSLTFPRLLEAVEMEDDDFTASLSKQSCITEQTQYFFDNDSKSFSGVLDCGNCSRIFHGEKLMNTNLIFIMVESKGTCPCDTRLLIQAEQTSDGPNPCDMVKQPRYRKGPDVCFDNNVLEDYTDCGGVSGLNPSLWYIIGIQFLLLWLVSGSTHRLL

The assay concerns the target T1, Human CaV2.2 channels (Homo sapiens, UniProt Q00975).
T1 construct: expressed in transfected cells; host or cells: HEK293
Description: Fluorescent (FLIPR) assay for CaV2.2 channels using potassium depolarization to induce channel opening. The note with it: 3 μM compound; 30 mM KCl assay buffer (inactivated channel state); HEK293 cells stably expressing human CaV2.2; read-out: Activity Category: %-Inhib (CaV2.2) @3 μM @30 mM KCl. The class given is cell-based. Summed up:
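HEK293 cells stably co-expressing human CaV2.2 with α2δ and β subunits plus Kir2.3, Fluo-4 loaded; compounds preincubated 15 min at 25 °C in 1 mM or 30 mM KCl buffer (inactivated state), pH 7.4. Depolarized by KCl addition; baseline-normalized peak fluorescence (ex 480/em 535 nm) gave inhibition.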
In the case of `Cc1c(-c2ccc(Cl)cc2)c(C(=O)N(C)C(C)C(=O)NC(C)(C)C)n(C(C)C)c1C(F)(F)F` (stereo not drawn) [Example 133, N-[1-(tert-Butyl-carbamoyl)-ethyl]-3-(4-chlorophenyl)-1-isopropyl-N,4-dimethyl-5-(trifluoromethyl)-1H-pyrrole-2-carboxylic acid amide], the inhibition at 3 µM was in the range of 40 to 75%.

For `Cc1c(-c2ccc(Cl)cn2)c(C(=O)N(C)C2CCNCC2(C)C)n(C(C)C)c1C(F)(F)F` (stereo not drawn) [Example 134, 3-(5-Chloro-pyridin-2-yl)-N-(3,3-dimethyl-piperidin-4-yl)-1-isopropyl-N,4-dimethyl-5-(trifluoromethyl)-1H-pyrrole-2-carboxylic acid amide], the inhibition at 3 µM was in the range of 40 to 75%.

As for `Cc1c(-c2ccc(Cl)cc2)c(C(=O)N(C)C2CCNCC2(C)C)n(C(C)C)c1C(F)(F)F` (stereo not drawn) [Example 135, 3-(4-Chlorophenyl)-N-(3,3-dimethyl-piperidin-4-yl)-1-isopropyl-N,4-dimethyl-5-(trifluoromethyl)-1H-pyrrole-2-carboxylic acid amide], the inhibition at 3 µM was in the range of 40 to 75%.
